Data from US20260137697A1, “THIAZOLO[5,4-D]PYRIMIDINE COMPOUNDS, COMPOSITIONS COMPRISING THEM AND USES THEREOF” (University de Montreal, priority 2022, published 2026).
pIC50: −log10 of the molar value.

Experiments:
pERK, HCT116 cells = experiment: Phospho-ERK inhibition, AlphaLISA p-ERK 1/2, HCT-116; type: cell-based, human; settings: Table 3; for pIC50: HCT116 cells (KRAS G13D), 1 h treatment; for HCT116 pERK (Ymin %): lowest % inhibition value of the pERK IC50 curve, above −20% = no paradoxical induction
Procedure, shortened: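 Cells in RPMI-1640 with 5% FBS plated overnight, then treated 1 h with ten-point dilutions (10 μM to 0.33 nM, 0.5% DMSO). Lysate p-ERK1/2 (Thr202/Tyr204) read by AlphaLISA SureFire Ultra; % inhibition normalised to DMSO and 1 μM trametinib background, IC50 by four-parameter fit.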

BRAF = target: T1, BRAF (Homo sapiens, UniProt P15056); experiment: BRAF kinase activity assay (ADP-Glo); type: biochemical; settings: Table 3; 10 μM ATP, kinase-dead MEK1 substrate
T1 construct: GST; purchased Millipore Sigma B4062-10UG
T1 sequence (P15056 whole entry): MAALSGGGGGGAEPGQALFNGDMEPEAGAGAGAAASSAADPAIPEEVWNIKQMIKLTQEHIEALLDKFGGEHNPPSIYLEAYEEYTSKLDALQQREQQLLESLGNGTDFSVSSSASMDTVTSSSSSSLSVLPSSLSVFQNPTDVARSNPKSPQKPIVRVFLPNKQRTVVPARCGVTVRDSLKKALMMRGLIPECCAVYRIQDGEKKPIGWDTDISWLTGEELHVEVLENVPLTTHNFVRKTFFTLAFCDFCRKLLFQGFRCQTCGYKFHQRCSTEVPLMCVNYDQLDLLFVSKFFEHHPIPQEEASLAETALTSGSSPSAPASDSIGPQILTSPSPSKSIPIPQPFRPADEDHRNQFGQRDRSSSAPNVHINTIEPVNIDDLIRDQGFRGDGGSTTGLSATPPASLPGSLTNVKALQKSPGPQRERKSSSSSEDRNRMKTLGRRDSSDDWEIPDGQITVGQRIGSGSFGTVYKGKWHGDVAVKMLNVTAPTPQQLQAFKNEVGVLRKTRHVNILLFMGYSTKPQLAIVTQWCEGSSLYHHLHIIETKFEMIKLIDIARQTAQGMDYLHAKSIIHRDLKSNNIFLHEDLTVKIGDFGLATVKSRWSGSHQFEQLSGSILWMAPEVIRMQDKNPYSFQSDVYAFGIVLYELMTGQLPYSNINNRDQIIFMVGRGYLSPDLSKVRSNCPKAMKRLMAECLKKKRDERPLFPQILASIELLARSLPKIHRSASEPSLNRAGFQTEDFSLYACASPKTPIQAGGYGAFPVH
Procedure, shortened: (§1)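 GST-tagged kinase (0.375 nM) with 75 nM kinase-dead MEK1 and 10 μM ATP in HEPES pH 7.5 buffer, 2 h at 30° C, nine concentrations 100–0.01 nM, 0.05% DMSO. ADP-Glo luminescence; % inhibition vs DMSO and substrate-only blanks, IC50 by four-parameter fit.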

CRAF = target: T2, CRAF (Homo sapiens, UniProt P04049); experiment: CRAF kinase activity assay (ADP-Glo); type: biochemical; settings: Table 3; 10 μM ATP, kinase-dead MEK1 substrate
T2 construct: fused on or other part: GST tag (N-terminal according to the vendor's product)
T2 sequence (P04049 whole entry Y340E/Y341E, form open, the tested form may be a part): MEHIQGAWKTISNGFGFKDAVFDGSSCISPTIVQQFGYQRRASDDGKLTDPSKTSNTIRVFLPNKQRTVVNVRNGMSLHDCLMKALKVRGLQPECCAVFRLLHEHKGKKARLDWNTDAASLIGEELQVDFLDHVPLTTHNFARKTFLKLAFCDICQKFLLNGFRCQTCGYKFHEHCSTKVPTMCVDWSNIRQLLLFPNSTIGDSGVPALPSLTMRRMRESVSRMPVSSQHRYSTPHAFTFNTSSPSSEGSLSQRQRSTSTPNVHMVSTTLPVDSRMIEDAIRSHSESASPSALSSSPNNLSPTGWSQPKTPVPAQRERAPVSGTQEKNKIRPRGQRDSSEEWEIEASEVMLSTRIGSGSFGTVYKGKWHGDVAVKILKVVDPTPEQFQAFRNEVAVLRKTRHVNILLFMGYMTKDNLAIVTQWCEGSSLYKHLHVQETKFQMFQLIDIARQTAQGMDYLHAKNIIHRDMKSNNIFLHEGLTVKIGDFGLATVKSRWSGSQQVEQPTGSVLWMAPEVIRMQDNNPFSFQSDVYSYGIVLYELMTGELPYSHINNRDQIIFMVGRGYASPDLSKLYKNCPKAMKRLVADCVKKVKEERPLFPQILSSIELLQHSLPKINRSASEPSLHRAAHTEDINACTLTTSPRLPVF
Procedure, shortened: as §1

CC(=O)N1CCN(c2cccc3c2ncn3-c2nc3c(Nc4c(F)ccc(NS(=O)(=O)c5cccc(Cl)c5Cl)c4F)ncnc3s2)CC1 [Example 130]
pIC50 (pERK, HCT116 cells): > 6.30 | HCT116 pERK (Ymin %) (pERK, HCT116 cells): −2% | pIC50 (BRAF): > 9.00 | pIC50 (CRAF): > 8.00

Cc1c(F)cccc1S(=O)(=O)Nc1ccc(F)c(Nc2ncnc3sc(-n4nc(C(=O)N5CCC(CO)C5)c5ccccc54)nc23)c1F (stereo not drawn) [Example 32]
pIC50 (pERK, HCT116 cells): 5.00 to 6.00 | HCT116 pERK (Ymin %) (pERK, HCT116 cells): −13% | pIC50 (BRAF): 8.00 to 9.00 | pIC50 (CRAF): 7.30 to 8.00

COCCOc1cccc2c1ncn2-c1nc2c(Nc3c(F)ccc(NS(=O)(=O)c4cccc(Cl)c4Cl)c3F)ncnc2s1 [Example 119]
pIC50 (pERK, HCT116 cells): > 6.30 | HCT116 pERK (Ymin %) (pERK, HCT116 cells): −1% | pIC50 (BRAF): > 9.00 | pIC50 (CRAF): > 8.00

O=C(c1cn(-c2nc3c(Nc4c(F)ccc(NS(=O)(=O)c5cccc(Cl)c5Cl)c4F)ncnc3s2)c2ccccc12)N1CCC(O)(C(F)(F)F)CC1 [Example 97]
pIC50 (pERK, HCT116 cells): > 6.30 | HCT116 pERK (Ymin %) (pERK, HCT116 cells): −10% | pIC50 (BRAF): < 8.00 | pIC50 (CRAF): 7.30 to 8.00

O=S(=O)(Nc1ccc(F)c(Nc2ncnc3sc(-n4cnc5c(F)c(OCCO)ccc54)nc23)c1F)c1cccc(Cl)c1Cl [Example 80]
pIC50 (pERK, HCT116 cells; Homo sapiens, HCT-116): 5.00 to 6.00 | pIC50 (BRAF): 8.00 to 9.00 | pIC50 (CRAF): > 8.00

Cc1c(F)cccc1S(=O)(=O)Nc1ccc(F)c(Nc2ncnc3sc(-n4cc(C(=O)N5CCC(CO)C5)c5ccccc54)nc23)c1F (stereo not drawn) [Example 33]
pIC50 (pERK, HCT116 cells): > 6.30 | HCT116 pERK (Ymin %) (pERK, HCT116 cells): −7% | pIC50 (BRAF): > 9.00 | pIC50 (CRAF): > 8.00

O=S(=O)(Nc1ccc(F)c(Nc2ncnc3sc(-n4cc(S(=O)(=O)C5CCCC5)c5ccccc54)nc23)c1F)c1cccc(Cl)c1Cl [Example 64]
pIC50 (pERK, HCT116 cells): > 6.30 | HCT116 pERK (Ymin %) (pERK, HCT116 cells): −4% | pIC50 (BRAF): 8.00 to 9.00 | pIC50 (CRAF): < 7.30

N#CCC1CN(C(=O)c2cn(-c3nc4c(Nc5c(F)ccc(NS(=O)(=O)c6cccc(Cl)c6Cl)c5F)ncnc4s3)c3ccccc23)C1 [Example 60]
pIC50 (pERK, HCT116 cells): > 6.30 | HCT116 pERK (Ymin %) (pERK, HCT116 cells): −2% | pIC50 (BRAF): > 9.00 | pIC50 (CRAF): > 8.00

CN1CC2CCC(C1)N2C(=O)c1cn(-c2nc3c(Nc4c(F)ccc(NS(=O)(=O)c5cccc(Cl)c5Cl)c4F)ncnc3s2)c2ccccc12 [Example 56]
pIC50 (pERK, HCT116 cells): > 6.30 | HCT116 pERK (Ymin %) (pERK, HCT116 cells): 0% | pIC50 (BRAF): > 9.00 | pIC50 (CRAF): > 8.00

CC1(C#N)CCN(c2cccc3c2ncn3-c2nc3c(Nc4c(F)ccc(NS(=O)(=O)c5cccc(Cl)c5Cl)c4F)ncnc3s2)CC1 [Example 145]
pIC50 (pERK, HCT116 cells): > 6.30 | HCT116 pERK (Ymin %) (pERK, HCT116 cells): −13% | pIC50 (BRAF): 8.00 to 9.00 | pIC50 (CRAF): < 7.30

COCCC(=O)c1cn(-c2nc3c(Nc4c(F)ccc(NS(=O)(=O)c5cccc(Cl)c5Cl)c4F)ncnc3s2)c2ccccc12 [Example 106]
pIC50 (pERK, HCT116 cells; Homo sapiens, HCT-116): 6.00 to 6.30 | pIC50 (BRAF): < 8.00 | pIC50 (CRAF): 7.30 to 8.00

Cc1c(F)cccc1S(=O)(=O)Nc1ccc(F)c(Nc2ncnc3sc(-n4cc(C(=O)N5C6CCC5COC6)c5ccccc54)nc23)c1F [Example 40]
pIC50 (pERK, HCT116 cells): > 6.30 | HCT116 pERK (Ymin %) (pERK, HCT116 cells): −7% | pIC50 (BRAF): > 9.00 | pIC50 (CRAF): > 8.00

COc1ccc(S(=O)(=O)Nc2ccc(F)c(Nc3ncnc4sc(-n5cnc6ccccc65)nc34)c2F)c(C)c1Cl [Example 14]
pIC50 (pERK, HCT116 cells): 5.00 to 6.00 | HCT116 pERK (Ymin %) (pERK, HCT116 cells): −14% | pIC50 (BRAF): 8.00 to 9.00 | pIC50 (CRAF): 7.30 to 8.00

Cc1c(Cl)cccc1S(=O)(=O)Nc1ccc(F)c(Nc2ncnc3sc(-n4cnc5c(F)cccc54)nc23)c1F [Example 36]
pIC50 (pERK, HCT116 cells): 5.00 to 6.00 | HCT116 pERK (Ymin %) (pERK, HCT116 cells): −13% | pIC50 (BRAF): 8.00 to 9.00 | pIC50 (CRAF): 7.30 to 8.00

Cc1cc2ncn(-c3nc4c(Nc5c(F)ccc(NS(=O)(=O)c6cccc(Cl)c6Cl)c5F)ncnc4s3)c2cc1C [Example 20]
pIC50 (pERK, HCT116 cells): > 6.30 | HCT116 pERK (Ymin %) (pERK, HCT116 cells): −12% | pIC50 (BRAF): 8.00 to 9.00 | pIC50 (CRAF): 7.30 to 8.00

O=S(=O)(Nc1ccc(F)c(Nc2ncnc3sc(-n4cnc5c(C(F)(F)F)cccc54)nc23)c1F)c1cccc(Cl)c1Cl [Example 17]
pIC50 (pERK, HCT116 cells; Homo sapiens, HCT-116): 5.00 to 6.00 | pIC50 (BRAF): 8.00 to 9.00 | pIC50 (CRAF): 7.30 to 8.00

COCCNS(=O)(=O)c1cn(-c2nc3c(Nc4c(F)ccc(NS(=O)(=O)c5cccc(Cl)c5Cl)c4F)ncnc3s2)c2ccccc12 [Example 62]
pIC50 (pERK, HCT116 cells): > 6.30 | HCT116 pERK (Ymin %) (pERK, HCT116 cells): 2% | pIC50 (BRAF): 8.00 to 9.00 | pIC50 (CRAF): > 8.00

O=S(=O)(Nc1ccc(F)c(Nc2ncnc3sc(-n4cnc5c(N6C7CCC6CC(O)C7)cccc54)nc23)c1F)c1cccc(Cl)c1Cl (stereo not drawn) [Example 129]
pIC50 (pERK, HCT116 cells): > 6.30 | HCT116 pERK (Ymin %) (pERK, HCT116 cells): 0% | pIC50 (BRAF): 8.00 to 9.00 | pIC50 (CRAF): < 7.30

COCCN(C)C(=O)c1nn(-c2nc3c(Nc4c(F)ccc(NS(=O)(=O)c5cccc(F)c5C)c4F)ncnc3s2)c2ccccc12 [Example 26]
pIC50 (pERK, HCT116 cells): 5.00 to 6.00 | HCT116 pERK (Ymin %) (pERK, HCT116 cells): −13% | pIC50 (BRAF): < 8.00 | pIC50 (CRAF): < 7.30

CN(C)CCN(C)S(=O)(=O)c1cn(-c2nc3c(Nc4c(F)ccc(NS(=O)(=O)c5cccc(Cl)c5Cl)c4F)ncnc3s2)c2ccccc12 [Example 41]
pIC50 (pERK, HCT116 cells): > 6.30 | HCT116 pERK (Ymin %) (pERK, HCT116 cells): 0% | pIC50 (BRAF): > 9.00 | pIC50 (CRAF): > 8.00

O=C(c1cn(-c2nc3c(Nc4c(F)ccc(NS(=O)(=O)c5cccc(Cl)c5Cl)c4F)ncnc3s2)c2ccccc12)N1CC(O)C1 [Example 59]
pIC50 (pERK, HCT116 cells): 6.00 to 6.30 | HCT116 pERK (Ymin %) (pERK, HCT116 cells): 4% | pIC50 (BRAF): > 9.00 | pIC50 (CRAF): > 8.00

O=C(c1cn(-c2nc3c(Nc4c(F)ccc(NS(=O)(=O)c5cccc(Cl)c5Cl)c4F)ncnc3s2)c2ccccc12)N1CC2(CCOCC2)C1 [Example 58]
pIC50 (pERK, HCT116 cells): > 6.30 | HCT116 pERK (Ymin %) (pERK, HCT116 cells): −12% | pIC50 (BRAF): 8.00 to 9.00 | pIC50 (CRAF): > 8.00

COc1ccc(S(=O)(=O)Nc2ccc(F)c(Nc3ncnc4sc(-n5cnc6ccccc65)nc34)c2F)c(C)c1F [Example 16]
pIC50 (pERK, HCT116 cells): 6.00 to 6.30 | HCT116 pERK (Ymin %) (pERK, HCT116 cells): −8% | pIC50 (BRAF): 8.00 to 9.00 | pIC50 (CRAF): 7.30 to 8.00

CN(Cc1ccncc1)C(=O)c1cn(-c2nc3c(Nc4c(F)ccc(NS(=O)(=O)c5cccc(Cl)c5Cl)c4F)ncnc3s2)c2ccccc12 [Example 45]
pIC50 (pERK, HCT116 cells): > 6.30 | HCT116 pERK (Ymin %) (pERK, HCT116 cells): −4% | pIC50 (BRAF): > 9.00 | pIC50 (CRAF): > 8.00

N#CC1CN(C(=O)c2cn(-c3nc4c(Nc5c(F)ccc(NS(=O)(=O)c6cccc(Cl)c6Cl)c5F)ncnc4s3)c3ccccc23)C1 [Example 54]
pIC50 (pERK, HCT116 cells): > 6.30 | HCT116 pERK (Ymin %) (pERK, HCT116 cells): −6% | pIC50 (BRAF): 8.00 to 9.00 | pIC50 (CRAF): > 8.00

O=C(c1cn(-c2nc3c(Nc4c(F)ccc(NS(=O)(=O)c5cccc(Cl)c5Cl)c4F)ncnc3s2)c2cccc(F)c12)N1C2CCC1COC2 [Example 93]
pIC50 (pERK, HCT116 cells): 6.00 to 6.30 | HCT116 pERK (Ymin %) (pERK, HCT116 cells): 3% | pIC50 (BRAF): > 9.00 | pIC50 (CRAF): > 8.00

Nc1ccncc1-c1cccc2c1ncn2-c1nc2c(Nc3c(F)ccc(NS(=O)(=O)c4cccc(Cl)c4Cl)c3F)ncnc2s1 [Example 133]
pIC50 (pERK, HCT116 cells): 5.00 to 6.00 | HCT116 pERK (Ymin %) (pERK, HCT116 cells): −12% | pIC50 (BRAF): 8.00 to 9.00 | pIC50 (CRAF): 7.30 to 8.00
